Source: patent US20260027125A1, “AN ANTIBACTERIAL PARENTERAL FORMULATION AND METHODS THEREOF” (BUGWORKS RESEARCH INDIA PVT. LTD., priority 2022, published 2026)
Where a name gives a salt, the structure may show the parent alone.

Columns and labels:
Francisella tularensis = assay: microbe, parasite or virus in culture; format: cell-based
Neisseria gonorrhoea = assay: microbe, parasite or virus in culture
Streptococcus pneumoniae = assay: microbe, parasite or virus in culture; format: cell-based
Escherichia coli = assay: microbe, parasite or virus in culture; format: cell-based
Bacillus anthracis = assay: microbe, parasite or virus in culture; format: cell-based
[1] = test system: Prevotella sp. (anaerobe); assay: microbe, parasite or virus in culture; format: cell-based
Enterobacter aerogenes = assay: microbe, parasite or virus in culture; format: cell-based
[2] = Solubility enhancement trials; format: physicochemical
Method: All observations were recorded once the solution temperature reached to 25° C.-30° C.

Acinetobacter baumannii = assay: microbe, parasite or virus in culture; format: cell-based
[3] = test system: Burkholderia cepacia species; assay: microbe, parasite or virus in culture; format: cell-based
[4] = test system: Ureaplasma species (atypical); assay: microbe, parasite or virus in culture; format: cell-based
Klebsiella pneumoniae = assay: microbe, parasite or virus in culture; format: cell-based
Helicobacter pylori [5] = assay: microbe, parasite or virus in culture
Moraxella catarrhalis = assay: microbe, parasite or virus in culture; format: cell-based
Salmonella species = assay: microbe, parasite or virus in culture; format: cell-based
Shigella sp. = assay: microbe, parasite or virus in culture; format: cell-based
Helicobacter pylori [6] = test system: Helicobacter pylori
[7] = test system: Burkholderia pseudomallei; assay: microbe, parasite or virus in culture; format: cell-based
Streptococcus pyogenes = assay: microbe, parasite or virus in culture; format: cell-based
[8] = Burkholderia cepacia species clinical isolates, N 75

In the case of `Cn1c(=O)ccc2ccc(F)c(CCNC[C@H]3CN(c4cnc5c(n4)NC(=O)CO5)C(=O)O3)c21` [compound of Formula (I) formate salt, (S)-6-(5-(((2-(7-fluoro-1-methyl-2-oxo-1,2-dihydroquinolin-8-yl)ethyl)amino)methyl)-2-oxooxazolidin-3-yl)-2H-pyrazino[2,3-b][1,4]oxazin-3(4H)-one formate], the MIC50 (Francisella tularensis) is reported as no more than 0.015 µg/mL, the MIC90 (Francisella tularensis) is reported as no more than 0.015 µg/mL and the “MIC Range, high end” value (Francisella tularensis; N 36 strains) is reported as no more than 0.015 µg/mL. The “MIC Range, low end” value (Francisella tularensis; N 36 strains) was no more than 0.015 µg/mL, the MIC50 (Neisseria gonorrhoea) was no more than 0.015 µg/mL and the MIC90 (Neisseria gonorrhoea) was no more than 0.015 µg/mL. The “MIC Range, high end” value (Streptococcus pneumoniae) was 0.06 µg/mL, the “MIC Range, low end” value (Streptococcus pneumoniae) was 0.03 µg/mL and the MIC50 (Streptococcus pneumoniae; Streptococcus pneumoniae) was 0.03 µg/mL. For the same compound, the MIC90 (Streptococcus pneumoniae; Streptococcus pneumoniae) was 0.03 µg/mL, the “MIC Range, high end” value (Escherichia coli) was 4 µg/mL and the “MIC Range, low end” value (Escherichia coli) was no more than 0.015 µg/mL. It also gave an MIC50 (Escherichia coli; Escherichia coli) of 0.12 µg/mL, an MIC90 (Escherichia coli; Escherichia coli) of 0.5 µg/mL and an MIC50 (Bacillus anthracis) of no more than 0.015 µg/mL. The MIC90 (Bacillus anthracis) was no more than 0.015 µg/mL, the “MIC Range, high end” value (Bacillus anthracis; N 42 strains) was no more than 0.015 µg/mL and the “MIC Range, low end” value (Bacillus anthracis; N 42 strains) was no more than 0.015 µg/mL. For the same compound, the “MIC Range, high end” value [1] was 1 µg/mL, the “MIC Range, low end” value [1] was no more than 0.015 µg/mL and the MIC50 ([1]; Prevotella) was no more than 0.015 µg/mL. For the same compound, the MIC90 ([1]; Prevotella) was no more than 0.015 µg/mL, the “MIC Range, high end” value (Enterobacter aerogenes) was 0.25 µg/mL and the “MIC Range, low end” value (Enterobacter aerogenes) was 0.25 µg/mL. For the same compound, the MIC50 (Enterobacter aerogenes; Klebsiella aerogenes) was 0.25 µg/mL, the MIC90 (Enterobacter aerogenes; Klebsiella aerogenes) was 0.25 µg/mL and the pH ([2]; Sr. No. 2: 7.5% Citric acid solution) was 1.96. The pH ([2]; Sr. No. 6: 7.5% Citric acid + 20% HPβ-CD) was 1.94, the pH ([2]; Sr. No. 9: 10% Ascorbic acid + 1% PVP K-12 + 20% HPβ-CD) was 2.9 and the pH ([2]; Sr. No. 10: 5% Ascorbic acid + 2% PVP K-12 + 20% HPβ-CD) was 3.19. For the same compound, the pH ([2]; Sr. No. 11: 7.5% Ascorbic acid + 2% PVP K-12 + 20% HPβ-CD) was 3.08, the pH ([2]; Sr. No. 12: 7.5% Ascorbic acid + 1% PVP K-12 + 20% HPβ-CD) was 3.07 and the pH ([2]; Sr. No. 13: 5% Ascorbic acid + […] Lactic acid + 1% PVP K-12 + 20% HPβ-CD) was 2.88. The pH ([2]; Sr. No. 14: 5% Ascorbic acid + 1% PVP K-12 + 30% HPβ-CD) was 3.25, the pH ([2]; Sr. No. 15: 7.5% Ascorbic acid + 1% PVP K-12 + 30% HPβ-CD) was 3.15 and the pH ([2]; Sr. No. 17: 10% Ascorbic acid + 1% PVP K-12 + 30% HPβ-CD) was 3.03. It also gave a pH ([2]; Sr. No. 18: 7% Ascorbic acid + […] Acetic acid + 1% PVP K-12 + 30% HPβ-CD) of 3.06, a pH ([2]; Sr. No. 19: 7% Ascorbic acid + 0.9% Glycine + 30% HPβ-CD) of 3.25 and a pH ([2]; Sr. No. 20: 7% Ascorbic acid + […] Acetic acid + 0.9% Glycine + 30% HPβ-CD) of 3.16. For the same compound, the pH ([2]; Sr. No. 21: 7% Ascorbic acid + […] lactic acid + 1% PVP K-12 + 30% HPβ-CD) was 2.91, the pH ([2]; Sr. No. 22: 6% Ascorbic acid + […] Acetic acid + […] lactic acid + 1% PVP K-12 + 30% HPβ-CD) was 2.84 and the pH ([2]; Sr. No. 23: Acetate Buffer (200 mM, pH 3.0) + 6% Ascorbic acid + […] lactic acid + 1% PVP K-12 + 30% HPβ-CD) was 2.78. The pH ([2]; Sr. No. 24: 5% Ascorbic acid + […] Acetic acid + […] lactic acid + 1% PVP K-12 + 30% HPβ-CD, pH adjusted by L-Arginine Solution) was 3.73, the “MIC Range, high end” value (Acinetobacter baumannii) was 4 µg/mL and the “MIC Range, low end” value (Acinetobacter baumannii) was 0.03 µg/mL. It also gave an MIC50 (Acinetobacter baumannii; Acinetobacter baumannii) of 0.25 µg/mL, an MIC90 (Acinetobacter baumannii; Acinetobacter baumannii) of 0.5 µg/mL and an MIC50 ([3]; Burkholderia cepacia) of 0.06 µg/mL. The MIC90 ([3]; Burkholderia cepacia) was 0.5 µg/mL, the “MIC Range, high end” value [3, 8] was 2 µg/mL and the “MIC Range, low end” value [3, 8] was 0.03 µg/mL. For the same compound, the “MIC Range, high end” value [4] was 0.03 µg/mL, the “MIC Range, low end” value [4] was no more than 0.015 µg/mL and the MIC50 ([4]; Ureaplasma) was no more than 0.015 µg/mL. For the same compound, the MIC90 ([4]; Ureaplasma) was no more than 0.015 µg/mL, the “MIC Range, high end” value (Klebsiella pneumoniae) was 32 µg/mL and the “MIC Range, low end” value (Klebsiella pneumoniae) was 0.03 µg/mL. For the same compound, the MIC50 (Klebsiella pneumoniae; Klebsiella pneumoniae) was 0.5 µg/mL, the MIC90 (Klebsiella pneumoniae; Klebsiella pneumoniae) was 2 µg/mL and the MIC50 (Helicobacter pylori [5]) was no more than 0.015 µg/mL. The MIC90 (Helicobacter pylori [5]) was no more than 0.015 µg/mL, the “MIC Range, high end” value (Moraxella catarrhalis) was no more than 0.015 µg/mL and the “MIC Range, low end” value (Moraxella catarrhalis) was no more than 0.015 µg/mL. The MIC50 (Moraxella catarrhalis; Moraxella catarrhalis) was no more than 0.015 µg/mL, the MIC90 (Moraxella catarrhalis; Moraxella catarrhalis) was no more than 0.015 µg/mL and the “MIC Range, high end” value (Salmonella species) was 2 µg/mL. The “MIC Range, low end” value (Salmonella species) was 0.03 µg/mL, the MIC50 (Salmonella species; Salmonella) was 0.12 µg/mL and the MIC90 (Salmonella species; Salmonella) was 0.25 µg/mL. For the same compound, the “MIC Range, high end” value (Shigella sp.) was 0.25 µg/mL, the “MIC Range, low end” value (Shigella sp.) was no more than 0.015 µg/mL and the MIC50 (Shigella sp.; Shigella) was 0.03 µg/mL. For the same compound, the MIC90 (Shigella sp.; Shigella) was 0.06 µg/mL, the “MIC Range, high end” value (Helicobacter pylori [6]) was 0.5 µg/mL and the “MIC Range, low end” value (Helicobacter pylori [6]) was no more than 0.015 µg/mL. For the same compound, the MIC50 [7] was 0.25 µg/mL, the MIC90 [7] was 0.5 µg/mL and the “MIC Range, high end” value ([7]; N 40 strains) was 4 µg/mL. For the same compound, the “MIC Range, low end” value ([7]; N 40 strains) was no more than 0.015 µg/mL, the “MIC Range, high end” value (Streptococcus pyogenes) was 0.06 µg/mL and the “MIC Range, low end” value (Streptococcus pyogenes) was 0.03 µg/mL. It also gave an MIC50 (Streptococcus pyogenes; Streptococcus pyogenes) of 0.03 µg/mL and an MIC90 (Streptococcus pyogenes; Streptococcus pyogenes) of 0.03 µg/mL.
